Experimental findings from US9512180B2, “Compstatin analogs” (THE REGENTS OF THE UNIVERSITY OF CALIFORNIA, priority 2012, dated 2016) are described below.

Data set [1] has as its target rC3 (Rattus norvegicus, UniProt P01026). As to the kind of experiment: Experimental activity against rC3 (method not described).
A short description of data set [2]: RP-HPLC relative lipophilicity (retention factor k, log k). Type of data set: physicochemical. Here is the method:
The effect of the hydrophobic content of compstatin family peptides on relative lipophilicity was evaluated using RP-HPLC, a widely applied indirect technique for the determination of the lipophilicity of drugs and drug candidates. The determination of log P by RP-HPLC is based on the measurement of the retention factor k between the mobile and stationary phase (Eq. 7) of the investigated compound:
[formula] where tR is the retention time of the analyte, and to is the elution time of an unretained analyte. The logarithm of the retention factor is linearly correlated with the logarithm of the partition coefficient log P=a log k+b (8). where a and b are the slope and intercept of the linear equation.
The determination of log P values requires calibration using structurally related compounds, and is beyond the scope of this study. Instead the log k values were used to indicate the relative lipophilicities of this compstatin peptide family.
HPLC experiments were carried out using an Agilent 1100 HPLC with UV detection at 280 nm at 25° C. Separations were performed on a Waters (Milford, Mass.) 4.6×150 mm XTerra MS C18 column with 5 μm pore size using a mobile phase of A: 10 mM phosphate buffer pH=7.4 containing 1% TFA, and B: acetonitrile. The purity of the peptides was verified by an isocratic separation at 28% B and a flow rate of 1 mL/min. Solutions containing 0.6-0.8 mg/mL of Peptides I, III, VI, IX and the parent peptide were prepared in methanol and diluted 5-times with the eluent. All five peptides eluted as single peaks indicating a high degree of purity (FIG. 10).
For the determination of the relative lipophilicities a solution containing each of the peptides was prepared from the stock solutions and injected in triplicate. […] A 0.5 mg/mL solution of aspartic acid was used as the unretained analyte for the determination of the column dead time, 1.439±0.003 min.
RP-HPLC was used to measure the hydrophobicity/lipophilicity content of the compstatin family peptides. The retention of a compound in RP-HPLC depends on its hydrophobicity/lipophilicity content, and is correlated to the octanol-water partition ratio. Lipophilicity describes the partitioning of a compound between an aqueous and a lipidic/hydrophobic environment, and is an essential physicochemical parameter to determine pharmacokinetic behavior according to ADME (absorption, distribution, metabolism, excretion) characterization. Because the compstatin family peptides consist of a hydrophobic and a polar surface, their ability to bind to the hydrophobic cavity of C3, while maintaining a solvent-exposed face has been evaluated here as lipohilicity content, measured by RP-HPLC. In addition, lipohilicity is inversely proportional to aqueous solubility, and therefore can be used to estimate solubility of the peptides in their free (unbound) state.

Data set [3] can be described thus: Aqueous solubility by concentration measurement (absorbance at 280 nm) of saturated peptide solutions. The conditions noted are these: saturated peptide solutions, absorbance at 280 nm; read-out: approximate aqueous solubility. Type of data set: physicochemical. Here is the method: The relative lipophilicities of Peptides I, III, VI, IX, and Parent are inversely consistent with solubilities as determined via concentration measurement (absorbance at 280 nm) of saturated peptide solutions, with Peptides I, III, and Parent having approximate aqueous solubilities of >1 mM, Peptide VI>500 μM, and Peptide IX<500 μM.

Chain of rC3 (P01026 25-1663): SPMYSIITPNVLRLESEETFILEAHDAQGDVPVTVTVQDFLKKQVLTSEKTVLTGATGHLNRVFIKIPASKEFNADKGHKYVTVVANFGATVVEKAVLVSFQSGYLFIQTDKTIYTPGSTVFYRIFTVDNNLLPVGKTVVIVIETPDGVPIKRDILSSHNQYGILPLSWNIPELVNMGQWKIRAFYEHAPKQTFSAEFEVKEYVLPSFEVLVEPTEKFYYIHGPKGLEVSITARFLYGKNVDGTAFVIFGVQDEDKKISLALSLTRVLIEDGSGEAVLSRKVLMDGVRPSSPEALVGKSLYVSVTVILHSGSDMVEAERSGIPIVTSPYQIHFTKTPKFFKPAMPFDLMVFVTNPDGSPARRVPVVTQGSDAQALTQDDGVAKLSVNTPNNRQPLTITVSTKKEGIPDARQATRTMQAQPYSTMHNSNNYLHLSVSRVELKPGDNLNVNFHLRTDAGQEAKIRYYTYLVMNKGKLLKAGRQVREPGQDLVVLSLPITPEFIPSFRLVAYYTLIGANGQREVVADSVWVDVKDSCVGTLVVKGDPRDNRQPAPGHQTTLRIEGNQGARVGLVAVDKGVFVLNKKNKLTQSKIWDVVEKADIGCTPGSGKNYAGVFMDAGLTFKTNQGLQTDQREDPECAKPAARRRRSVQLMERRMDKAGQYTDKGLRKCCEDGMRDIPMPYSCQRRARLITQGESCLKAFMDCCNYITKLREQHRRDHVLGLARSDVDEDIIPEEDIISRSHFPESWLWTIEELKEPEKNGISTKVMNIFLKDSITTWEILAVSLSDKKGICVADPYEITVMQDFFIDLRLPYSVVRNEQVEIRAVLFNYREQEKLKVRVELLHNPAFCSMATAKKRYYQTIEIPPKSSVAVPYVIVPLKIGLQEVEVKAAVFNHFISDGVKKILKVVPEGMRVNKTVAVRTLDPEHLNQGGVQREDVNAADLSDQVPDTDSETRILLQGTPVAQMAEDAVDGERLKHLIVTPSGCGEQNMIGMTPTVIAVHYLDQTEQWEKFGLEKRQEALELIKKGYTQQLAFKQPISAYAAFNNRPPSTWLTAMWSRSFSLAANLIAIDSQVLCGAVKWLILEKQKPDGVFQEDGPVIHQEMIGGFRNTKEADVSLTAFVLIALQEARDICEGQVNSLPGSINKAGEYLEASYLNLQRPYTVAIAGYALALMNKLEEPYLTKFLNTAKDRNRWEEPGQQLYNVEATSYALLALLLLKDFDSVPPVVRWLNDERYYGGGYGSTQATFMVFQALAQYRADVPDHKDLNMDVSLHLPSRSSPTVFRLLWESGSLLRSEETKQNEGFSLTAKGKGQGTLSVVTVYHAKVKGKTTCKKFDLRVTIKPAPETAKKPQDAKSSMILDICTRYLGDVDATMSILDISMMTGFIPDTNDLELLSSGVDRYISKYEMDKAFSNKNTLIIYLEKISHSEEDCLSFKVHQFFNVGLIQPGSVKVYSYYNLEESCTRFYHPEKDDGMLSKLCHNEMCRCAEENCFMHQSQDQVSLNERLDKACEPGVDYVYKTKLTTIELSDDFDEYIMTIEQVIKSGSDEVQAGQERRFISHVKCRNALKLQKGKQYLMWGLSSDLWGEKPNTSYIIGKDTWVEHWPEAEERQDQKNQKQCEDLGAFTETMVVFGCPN

With `CC[C@H](C)[C@H](NC(C)=O)C(=O)N[C@H]1CSSC[C@@H](C(=O)N[C@H](C(N)=O)[C@@H](C)O)NC(=O)[C@H](CCCNC(=N)N)NC(=O)[C@H](Cc2c[nH]cn2)NC(=O)[C@H](C)NC(=O)CNC(=O)[C@H](Cc2c[nH]c3ccccc23)NC(=O)[C@H](CC(=O)O)NC(=O)[C@H](CCC(N)=O)NC(=O)[C@H](Cc2c[nH]c3ccccc23)NC(=O)[C@H](C(C)C)NC1=O` [Peptide IX, Ac- ICV WQDWGA HRCT-NH2, reference compound], the “activity against rC3 (in words)” value in data set [1] is “inactive”. In data set [2], the “Retention factor (k)” value worked out at 11.429 and the logk amounted to 1.058. Besides, in data set [3], the solubility was < 500 µM.
